Source: patent US20090162413A1 (priority 1998, published 2009)
Read-outs that look alike come from different tables or passages of the source.

Test: Phase 1 single escalating intravenous dose safety and pharmacokinetics (Example 6)
Assay type: in vivo, human
Conditions: for β: elimination rate constant; for tolerability: single IV doses of 100 to 900 μg
Protocol: In the present, first-time-in-man study, the safety and pharmacokinetics of zotarolimus were investigated following intravenous bolus administration of zotarolimus over a 100 to 900 μg dose range. The intravenous bolus dose administration would mimic the most rapid unexpected release of zotarolimus from drug-coated stents in vivo.
This was a Phase 1, single escalating dose, double-blind, randomized, placebo-controlled, single-center study. Sixty (60) adult healthy males were divided into 5 IV dose groups of 100, 300, 500, 700, and 900 μg.
Subjects were randomly assigned to receive a single intravenous dose of zotarolimus or a matching intravenous placebo under fasting conditions, as shown in the dosing scheme shown in Table 9.
Higher doses were administered after evaluating the safety data from the preceding lower dose groups. The treatment groups were separated by at least 7 days. For safety reasons, each treatment group was divided into two cohorts of six subjects and the doses of the two cohorts of a group were separated by at least 1 day.
Doses were administered as IV bolus over 3 minutes, with 8 subjects. Four subjects received zotarolimus and 4 subjects received placebo in each dose group. Blood concentrations of zotarolimus were sampled for 168 hours and measured using LC-MS/MS with a LOQ of 0.20 ng/mL
Seven (7)-mL blood samples were collected by venipuncture into evacuated collection tubes containing edetic acid (EDTA) prior to dosing (0 hour) and at 0.083 (5 min), 0.25, 0.5, 1, 2, 4, 8, 12, 16, 24, 36, 48, 72, 96, 120, 144, and 168 hours after dosing on Study Day 1.
Blood concentrations of zotarolimus were determined using a validated liquid/liquid extraction HPLC tandem mass spectrometric method (LC-MS/MS) (Ji et al., 2004). The lower limit of quantification of zotarolimus was 0.20 ng/mL using 0.3 mL blood sample. All calibration curves had coefficient of determination (r^2) values greater than or equal to 0.9923.
Safety was evaluated based on adverse event, physical examination, vital signs, ECG, injection site and laboratory tests assessments.
Pharmacokinetic parameter values of zotarolimus were estimated using noncompartmental methods.
To investigate the questions of dose proportionality and linear pharmacokinetics, an analysis of covariance (ANCOVA) was performed. Subjects were classified by dose level, and body weight was a covariate. The variables analyzed included β, Vdβ, dose-normalized C5, and logarithms of dose-normalized AUC0-last and dose-normalized AUC0-inf. The primary test of the hypothesis of invariance with dose was a test on dose-level effects with good power for a monotonic function of dose. In addition, the highest and lowest dose levels were compared within the framework of the ANCOVA

[1] = single IV bolus 100 μg, mean ± SD
[2] = single IV bolus 300 μg, mean ± SD
[3] = single IV bolus 500 μg, mean ± SD
[4] = single IV bolus 700 μg, mean ± SD
[5] = single IV bolus 900 μg, mean ± SD

Q: With CO[C@H]1C[C@@H]2CC[C@@H](C)[C@@](O)(O2)C(=O)C(=O)N2CCCC[C@H]2C(=O)O[C@H]([C@H](C)C[C@@H]2CC[C@H](n3cnnn3)[C@H](OC)C2)CC(=O)[C@H](C)/C=C(\C)[C@@H](O)[C@@H](OC)C(=O)[C@H](C)C[C@H](C)/C=C/C=C/C=C/1C [zotarolimus] as the compound, how does the “dose proportionality of pharmacokinetics” value (IV, 100-900 μg dose range, with respect to C5 and AUC0-inf) read?
A: dose-proportional

Q: What about the clearance (male, human, whole blood, range of means over single IV doses 100-900 μg, read-out: mean clearance) of the same compound?
A: 48.3 to 59.2 mL/min

Q: What about the Vd (male, human, whole blood, range of means over single IV doses 100-900 μg, read-out: mean volume of distribution) of the same compound?
A: 113 to 202 L

Q: What about the half-life (male, human, whole blood, range of means over the studied single IV doses 100-900 μg, read-out: mean half-life) of the same compound?
A: 26 to 40.2 h

Q: And the half-life (male, human, whole blood, single IV bolus 100 μg, harmonic mean ± pseudo-standard deviation, read-out: t1/2 (converted))?
A: 26 ± 6 h

Q: And the AUC(0-t) (male, human, whole blood, single IV bolus 100 μg, mean ± SD)?
A: 24.6 ± 5.89 ng·h/mL

Q: What about the AUC(0-inf) (male, human, whole blood, single IV bolus 100 μg, mean ± SD, read-out: AUC0-inf) of the same compound?
A: 35.3 ± 6.15 ng·h/mL

Q: What about the clearance (male, human, whole blood, single IV bolus 100 μg, mean ± SD, read-out: CL (converted)) of the same compound?
A: 48.3 mL/min

Q: And the half-life (male, human, whole blood, single IV bolus 300 μg, harmonic mean ± pseudo-standard deviation, read-out: t1/2 (converted))?
A: 35.9 ± 4.6 h

Q: And the AUC(0-t) (male, human, whole blood, single IV bolus 300 μg, mean ± SD)?
A: 77.8 ± 13.7 ng·h/mL

Q: What about the AUC(0-inf) (male, human, whole blood, single IV bolus 300 μg, mean ± SD, read-out: AUC0-inf) of the same compound?
A: 91.2 ± 14.7 ng·h/mL

Q: What about the clearance (male, human, whole blood, single IV bolus 300 μg, mean ± SD, read-out: CL (converted)) of the same compound?
A: 56 mL/min

Q: What about the half-life (male, human, whole blood, single IV bolus 500 μg, harmonic mean ± pseudo-standard deviation, read-out: t1/2 (converted)) of the same compound?
A: 40.2 ± 7.8 h

Q: What about the concentration at 5 min (male, human, whole blood, single IV bolus 500 μg, healthy males, blood, concentration at 5 minutes, mean ± SD (N = 7), read-out: C5) of the same compound?
A: 56.5 ± 27.5 ng/mL

Q: And the AUC(0-t) (male, human, whole blood, single IV bolus 500 μg, mean ± SD)?
A: 146 ± 32.4 ng·h/mL

Q: What about the AUC(0-inf) (male, human, whole blood, single IV bolus 500 μg, mean ± SD, read-out: AUC0-inf) of the same compound?
A: 162 ± 29.6 ng·h/mL

Q: What about the clearance (male, human, whole blood, single IV bolus 500 μg, mean ± SD, read-out: CL (converted)) of the same compound?
A: 52.8 mL/min

Q: What about the AUC(0-t) (male, human, whole blood, single IV bolus 700 μg, mean ± SD) of the same compound?
A: 208 ± 19.4 ng·h/mL

Q: And the AUC(0-inf) (male, human, whole blood, single IV bolus 700 μg, mean ± SD, read-out: AUC0-inf)?
A: 222 ± 19.6 ng·h/mL

Q: What about the AUC(0-t) (male, human, whole blood, single IV bolus 900 μg, mean ± SD) of the same compound?
A: 241 ± 19.2 ng·h/mL

Q: What about the AUC(0-inf) (male, human, whole blood, single IV bolus 900 μg, mean ± SD, read-out: AUC0-inf) of the same compound?
A: 254 ± 17.6 ng·h/mL

Q: What about the clearance (male, human, whole blood, single IV bolus 900 μg, mean ± SD, read-out: CL (converted)) of the same compound?
A: 59.2 mL/min

Q: And the β [1]?
A: 0.027 ± 0.006 h⁻¹

Q: What about the AUC0-inf/Dose [1] of the same compound?
A: 0.35 ± 0.06 ng·h/mL/µg

Q: What about the AUC0-last/Dose [1] of the same compound?
A: 0.25 ± 0.06 ng·h/mL/µg

Q: What about the C5/Dose [1] of the same compound?
A: 0.13 ± 0.03 ng/mL/µg

Q: What about the Vdβ [1] of the same compound?
A: 113 ± 23 L

Q: And the β [2]?
A: 0.019 ± 0.002 h⁻¹

Q: And the AUC0-inf/Dose [2]?
A: 0.30 ± 0.05 ng·h/mL/µg

Q: And the AUC0-last/Dose [2]?
A: 0.26 ± 0.05 ng·h/mL/µg

Q: And the C5/Dose [2]?
A: 0.12 ± 0.03 ng/mL/µg

Q: What about the Vdβ [2] of the same compound?
A: 175 ± 23 L

Q: And the β [3]?
A: 0.017 ± 0.003 h⁻¹

Q: And the C5 (single IV bolus 500 μg, healthy males, blood, concentration at 5 minutes, mean ± SD (N = 7))?
A: 56.50 ± 27.54 ng/mL

Q: What about the AUC0-inf/Dose [3] of the same compound?
A: 0.32 ± 0.06 ng·h/mL/µg

Q: What about the AUC0-last/Dose [3] of the same compound?
A: 0.29 ± 0.06 ng·h/mL/µg

Q: What about the AUC(0-inf) [3] of the same compound?
A: 162.44 ± 9.58 ng·h/mL

Q: And the C5/Dose [3]?
A: 0.11 ± 0.05 ng/mL/µg

Q: What about the Vdβ [3] of the same compound?
A: 190 ± 49 L

Q: And the β [4]?
A: 0.020 ± 0.001 h⁻¹

Q: And the t1/2 (single IV bolus 700 μg, harmonic mean ± pseudo-standard deviation)?
A: 35.0 ± 2.4 h

Q: And the AUC0-inf/Dose [4]?
A: 0.32 ± 0.03 ng·h/mL/µg

Q: What about the AUC0-last/Dose [4] of the same compound?
A: 0.30 ± 0.03 ng·h/mL/µg

Q: And the C5/Dose [4]?
A: 0.13 ± 0.01 ng/mL/µg

Q: What about the CL [4] of the same compound?
A: 3.18 ± 0.28 L/h

Q: What about the Vdβ [4] of the same compound?
A: 161 ± 15 L

Q: And the β [5]?
A: 0.018 ± 0.002 h⁻¹

Q: And the t1/2 (single IV bolus 900 μg, harmonic mean ± pseudo-standard deviation)?
A: 39.0 ± 3.9 h

Q: What about the AUC0-inf/Dose [5] of the same compound?
A: 0.28 ± 0.02 ng·h/mL/µg

Q: What about the AUC0-last/Dose [5] of the same compound?
A: 0.27 ± 0.02 ng·h/mL/µg

Q: What about the C5/Dose [5] of the same compound?
A: 0.12 ± 0.02 ng/mL/µg

Q: And the Vdβ [5]?
A: 202 ± 29 L

Q: What about the serious adverse events (single IV doses 100-900 μg) of the same compound?
A: no serious adverse events

Q: What about the tolerability (healthy males) of the same compound?
A: without safety concerns

Q: What about the tolerability (healthy males, listed as Zotarolimus) of the same compound?
A: generally well tolerated

Q: And the “most common treatment-emergent adverse events” value (single IV doses, reported by two or more subjects in any one treatment group)?
A: injection site reaction and pain
